Experimental data taken from patent US20240261294A1, “METHOD FOR TREATING IDH INHIBITOR-RESISTANT SUBJECTS” (Eli Lilly and Company, priority 2021, published 2024).
Where a chain is given by its changes, count along the chain named. Read-outs that look alike come from different tables or passages of the source.

How the values were obtained:
[1] = biological target: T1, IDH2 R172K (Homo sapiens, UniProt P48735, R172K); test: Inhibition of 2-HG production in IDH2 mutant U-87 MG cells; type: cell-based
T1 sequence (P48735 40-452 R172K): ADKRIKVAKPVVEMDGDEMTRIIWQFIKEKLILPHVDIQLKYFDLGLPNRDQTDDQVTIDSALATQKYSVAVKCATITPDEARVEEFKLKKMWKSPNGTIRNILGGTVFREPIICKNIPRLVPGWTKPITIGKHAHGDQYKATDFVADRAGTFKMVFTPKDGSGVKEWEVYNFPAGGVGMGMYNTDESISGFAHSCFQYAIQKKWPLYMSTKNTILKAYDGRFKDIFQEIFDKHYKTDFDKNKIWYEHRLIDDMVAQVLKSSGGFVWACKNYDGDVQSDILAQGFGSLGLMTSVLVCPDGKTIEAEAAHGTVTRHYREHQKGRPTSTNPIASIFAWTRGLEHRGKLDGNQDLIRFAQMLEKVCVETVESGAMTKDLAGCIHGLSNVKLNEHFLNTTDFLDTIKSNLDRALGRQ
Protocol: (§1) Compounds and Formulation. Compound A may be synthesized as described in WO/18/111707. Compound A is prepared as a 20 mM stock in 100% DMSO (dimethyl sulfoxide) (Sigma, D2438) and diluted serially in 100% DMSO to achieve the desired concentrations. DMSO preparations are further diluted with cell culture media prior to addition in the assay.
(§2) Cell lines. U-87 MG cells (ATCC, HTB-14) are cultured and assayed in MEM (Gibco, 11095) with 2 mM GlutaMAX (Gibco, 35050), 1 mM Pyruvate (Gibco, 11360), 0.1 mM NEAA ((Non-essential amino acid) Gibco, 11140) and 10% dialyzed FBS (Fetal bovine serum) (Gibco, 26400).
(§3) Cell-based inhibition assays. Cell-based assays are performed by measuring 2-HG in U-87 MG cells in which IDH2 mutations are expressed.
(§4) DNA constructs encoding IDH2 mutations are introduced into U-87 MG cells using transfection (Promega FuGENE HD, E2311) or lentiviral transduction, and the IDH2-mutant expressing cell lines are selected using blasticidin (5 μg/ml) or puromycin (1 μg/ml). Second site mutations (Q316E, I319M, P167R, and G260A) are evaluated in cis (same monomer as driver mutation within dimer) or in trans (opposite monomer from driver mutation in dimer). For compound treatments, 12,500 or 50,000 cells per well in culture medium (150 μl or 100 μl, respectively) are plated in 96 well cell culture plates (Falcon, 353377) 2 hrs prior to treatment. Cells are treated with serial dilutions of compound A in standard growth media. Plates are incubated in a mammalian cell culture incubator (humidified, 37° C., 5% CO2) for 16 or 72 hrs. Following the incubation period, the media is aspirated and cell extracts are prepared by addition of ice-cold 80% methanol/20% water (100 μL) containing liquid chromatography-mass spectrometry (LC-MS) internal standards (1 μM ^13C4 α-KG and ^13C5 2-HG) per well for ion pairing LC-MS method. 96-well sample plates are then sealed, shaken at 450 rpm for 10 min, and then placed at −20° C. and stored until LC-MS analysis.
(§5) LC-MS metabolite analysis of conditioned media and cell lysates. The effect of inhibitors on the concentrations of 2-HG are determined by LC-MS analysis of cell lysates using an ion-pairing method as described below.
(§6) Calibration curves are prepared by spiking 2-HG and α-KG into 80% methanol/20% water containing LC-MS internal standards (1 μM ^13C4 α-KG and 1 μM ^13C5 2-HG). The quantitation of 2-HG and α-KG is accomplished using an AB Sciex 6500 mass spectrometer with an Electrospray Ionization (ESI) probe and interfaced with an Ultra Performance Liquid Chromatography (UHPLC) system in the negative multiple-reaction monitoring (MRM) mode. The UHPLC system consists of an Agilent 1290 binary pump, thermostatted column compartment (TCC), and sampler. The injection volume is 1 μL for cell culture extracts. The extracts are chromatographically resolved using a Hypercarb column, 2.1×20 mm, […] Javelin HTS (Thermo Scientific, PN: 35005-022135). Mobile phase A is water/10 mM tributylamine/15 mM acetic acid. Mobile phase B is acetonitrile/20 mM tributylamine/30 mM acetic acid. The solvent flow rate is 1.0 mL/min. The isocratic condition is kept at 26% mobile phase B. The valve, sample loop, and needle are washed with 50% acetonitrile: 50% methanol for 20 seconds. The column temperature is kept at 55° C. Calibration curves are calculated by least-square linear regression with 1/x weighting. 2-HG and α-KG are quantified using standard curve and ratio of the peak area of analytes to internal standard. Data analysis is performed using MultiQuant 3.0 (AB Sciex). The raw data are exported to Microsoft Excel spreadsheets.
(§7) Determination of IC50 Curves. IC50 curves for each compound are obtained using four parameter data fitting analysis in GraphPad/Prism software.

[2] = biological target: T2, IDH2 R140Q (Homo sapiens, UniProt P48735, R140Q); test: as above; type: cell-based
T2 construct: expressed in transfected cells; host or cells: U-87 MG
T2 sequence (P48735 40-452 R140Q): T1 sequence (P48735 40-452 R172K) with R101Q, K133R
Protocol: as §1, §2, §3, §4, §5, §6, §7

[3] = 16 hours incubation, 50K cells/well, 100 μl media/well, read-out: Relative IC50 (nM) Mean, inhibition of 2-HG production
[4] = 72 hours incubation, 12.5K cells/well, 150 μl media/well, read-out: IC50, inhibition of 2-HG production

Structure (SMILES): C=CC(=O)N1CCN([C@@H](CC2CC2)c2ccc([C@H](C)Nc3ncc4c(n3)N(CC)C(=O)OC4)cc2)CC1 [Compound A, 7-[[(1S)-1-[4-[(1S)-2-cyclopropyl-1-(4-prop-2-enoylpiperazin-1-yl)ethyl]phenyl]ethyl]amino]-1-ethyl-4H-pyrimido[4,5-d][1,3]oxazin-2-one]
- IC50 [1, 3]: 56 nM
- IC50 [1, 4]: 13.5 nM
- IC50 [2, 3]: 223 nM
- IC50 [2, 4]: 28.4 nM
